For assay [1], the system named is S. aureus Smith. Kind of assay: Mouse systemic infection (septicemia) model, CD-1 mice. Conditions: Staphylococcus aureus, in Mus musculus, 48 h; for responders at 3 mg/kg: iv, read-out: Percent survival at 48 hours, IV (3 mg/kg); for responders at 30 mg/kg: po, read-out: Percent survival at 48 hours, PO (30 mg/kg).
Assay [2] has as its system Gram-negative and Gram-positive organisms (clinical isolates). In words: Broth microdilution MIC against clinical isolates (CLSI M7-A8), Table 9. In kind it is cell-based.
[3] abbreviates: Acinetobacter lwoffii, n=29, read-out: MIC50.
The mark [4] stands for this setting: Acinetobacter lwoffii, n=29, read-out: MIC90.
[5] abbreviates: Klebsiella aerogenes, Enterobacter aerogenes, n=30.
Where [6] appears, read: Klebsiella pneumoniae, Klebsiella pneumonia, n=27.
[7] abbreviates: Salmonella species, n=30, read-out: MIC50.
Setting [8] is: Staphylococcus aureus, Staphylococcus aureus (MRSA PVL+), n=30, read-out: MIC50.
Where [9] appears, read: Staphylococcus aureus, Staphylococcus aureus (MRSA PVL+), n=30, read-out: MIC90.
Setting [10] is: Stenotrophomonas maltophilia, n=29.
[11] abbreviates: Streptococcus intermedius, n=30.
Setting [12] is: Streptococcus sanguis, n=18, read-out: MIC50.
Where [13] appears, read: Streptococcus sanguis, n=18, read-out: MIC90.
Setting [14] is: Staphylococcus aureus, Staphylococcus aureus MRSA (includes MRSA PVL+ group), n=105, read-out: MIC50.
[15] abbreviates: Staphylococcus aureus, Staphylococcus aureus MRSA (includes MRSA PVL+ group), n=105, read-out: MIC90.

Converted amounts (≈) assume the structure as drawn. Where two headings read alike, the source gives them in different places. A value given as a limit tells only on which side of the number the result lay.

In the case of `CN(C)[C@@H]1C(O)=C(C(N)=O)C(=O)[C@@]2(O)C(O)=C3C(=O)c4c(O)c5c(c(F)c4C[C@H]3C[C@@H]12)CN(C(C)(C)C1CC1)C5` [Compound 118], in assay [1], the responders at 3 mg/kg was determined as 17% and the responders at 30 mg/kg worked out at 50%.
In the case of `CCC(C)(C)N1Cc2c(O)c3c(c(OC)c2C1)C[C@H]1C[C@H]2[C@H](N(C)C)C(O)=C(C(N)=O)C(=O)[C@@]2(O)C(O)=C1C3=O` [Compound 119], in assay [1], the responders at 3 mg/kg came out at 83% and the responders at 30 mg/kg was determined as 75%.
Take `CC[C@H](C)N1Cc2c(O)c3c(c(F)c2C1)C[C@H]1C[C@H]2[C@H](N(C)C)C(O)=C(C(N)=O)C(=O)[C@@]2(O)C(O)=C1C3=O` [Compound 123]: in assay [1], the responders at 3 mg/kg came out at 33% and the responders at 30 mg/kg stood at 67%.
For `COc1c2c(c(O)c3c1C[C@H]1C[C@H]4[C@H](N(C)C)C(O)=C(C(N)=O)C(=O)[C@@]4(O)C(O)=C1C3=O)CN(C(C)(C)C)C2` [Compound 125], in that order: 100% and 33%.
What is called MIC50 is the lowest concentration that inhibits either 50% of growth or 50% of the strains tested, depending on the study. Usually MIC90 stands for an inhibitory concentration at the 90% level, which refers to growth in some studies and to a panel of isolates in others. With `C[C@@H](O)[C@H]1C(=O)N2C(C(=O)O)=C(S[C@@H]3CN[C@H](C(=O)Nc4cccc(C(=O)O)c4)C3)[C@H](C)[C@H]12` [Ertapenem], the MIC50 in assay [2] (setting [3]) was ≤ 1 µg/mL; in assay [2] (Enterobacter cloacae, n=29), ≤ 1 µg/mL; in assay [2] (Escherichia coli, n=40) it was ≤ 1 µg/mL; in assay [2] (Kiebsielia oxytoca, n=30) it was ≤ 1 µg/mL; in assay [2] (setting [5]) it was ≤ 1 µg/mL; in assay [2] (setting [6]), ≤ 1 µg/mL. Moreover, the MIC50 in assay [2] (Morganella morganii, n=30) is ≤ 1 µg/mL; in assay [2] (Proteus vulgaris, n=29), ≤ 1 µg/mL; in assay [2] (setting [7]), ≤ 1 µg/mL; in assay [2] (Serratia marcescens, n=30), ≤ 1 µg/mL; in assay [2] (setting [8]), 4 µg/mL (≈ 8.41 µM); in assay [2] (setting [10]) it was > 8 µg/mL. In addition, the MIC50 in assay [2] (Streptococcus anginosus, n=20) amounted to 0.12 µg/mL (≈ 0.252 µM); in assay [2] (setting [11]), 0.06 µg/mL (≈ 0.126 µM); in assay [2] (Streptococcus mitis, n=29) it was 0.25 µg/mL (≈ 0.526 µM); in assay [2] (setting [12]), 0.12 µg/mL (≈ 0.252 µM). Moreover, the MIC90 was 4 µg/mL (≈ 8.41 µM) in assay [2] (setting [4]); > 8 µg/mL in assay [2] (Enterobacter cloacae, n=29); ≤ 1 µg/mL in assay [2] (Escherichia coli, n=40); ≤ 1 µg/mL in assay [2] (Kiebsielia oxytoca, n=30); ≤ 1 µg/mL in assay [2] (setting [5]); 8 µg/mL (≈ 16.8 µM) in assay [2] (setting [6]). Moreover, the MIC90 is ≤ 1 µg/mL in assay [2] (Morganella morganii, n=30); ≤ 1 µg/mL in assay [2] (Proteus vulgaris, n=29); ≤ 1 µg/mL in assay [2] (Serratia marcescens, n=30); 8 µg/mL (≈ 16.8 µM) in assay [2] (setting [9]); > 8 µg/mL in assay [2] (setting [10]); 0.25 µg/mL (≈ 0.526 µM) in assay [2] (Streptococcus anginosus, n=20). Moreover, the MIC90 was 0.5 µg/mL (≈ 1.05 µM) in assay [2] (setting [11]); > 1 µg/mL in assay [2] (Streptococcus mitis, n=29); 0.5 µg/mL (≈ 1.05 µM) in assay [2] (setting [13]).
Turning to `C[C@H]1COc2c(N3CCN(C)CC3)c(F)cc3c(=O)c(C(=O)O)cn1c23` [Levofloxacin, levofloxacin], the MIC50 in assay [2] (setting [3]) is ≤ 0.25 µg/mL; in assay [2] (Enterobacter cloacae, n=29), 1 µg/mL (≈ 2.77 µM); in assay [2] (Escherichia coli, n=40), ≤ 0.25 µg/mL; in assay [2] (Kiebsielia oxytoca, n=30) it was ≤ 0.25 µg/mL; in assay [2] (setting [5]), ≤ 0.25 µg/mL; in assay [2] (setting [6]), 1 µg/mL (≈ 2.77 µM). Moreover, the MIC50 was ≤ 0.25 µg/mL in assay [2] (Morganella morganii, n=30); ≤ 0.25 µg/mL in assay [2] (Proteus vulgaris, n=29); ≤ 0.25 µg/mL in assay [2] (setting [7]); ≤ 0.25 µg/mL in assay [2] (Serratia marcescens, n=30); 0.25 µg/mL (≈ 0.692 µM) in assay [2] (setting [8]); > 2 µg/mL in assay [2] (setting [14]). In addition, the MIC50 in assay [2] (setting [10]) is 0.5 µg/mL (≈ 1.38 µM); in assay [2] (Streptococcus anginosus, n=20) it was 0.5 µg/mL (≈ 1.38 µM); in assay [2] (setting [11]) it was 1 µg/mL (≈ 2.77 µM); in assay [2] (Streptococcus mitis, n=29) it was 1 µg/mL (≈ 2.77 µM); in assay [2] (setting [12]), 0.5 µg/mL (≈ 1.38 µM). For the same compound, the MIC90 in assay [2] (setting [4]) is ≤ 0.25 µg/mL; in assay [2] (Enterobacter cloacae, n=29) it was > 4 µg/mL; in assay [2] (Escherichia coli, n=40) it was > 4 µg/mL; in assay [2] (Kiebsielia oxytoca, n=30) it was 4 µg/mL (≈ 11.1 µM); in assay [2] (setting [5]), ≤ 0.25 µg/mL; in assay [2] (setting [6]), > 4 µg/mL. For the same compound, the MIC90 in assay [2] (Morganella morganii, n=30) was 4 µg/mL (≈ 11.1 µM); in assay [2] (Proteus vulgaris, n=29), 1 µg/mL (≈ 2.77 µM); in assay [2] (Salmonella species, n=30, read-out: MIC90), ≤ 0.25 µg/mL; in assay [2] (Serratia marcescens, n=30), 2 µg/mL (≈ 5.53 µM); in assay [2] (Shigella species, n=30, read-out: MIC90), 0.5 µg/mL (≈ 1.38 µM); in assay [2] (setting [9]), > 2 µg/mL. For the same compound, the MIC90 in assay [2] (setting [15]) was > 2 µg/mL; in assay [2] (setting [10]), > 4 µg/mL; in assay [2] (Streptococcus anginosus, n=20), 0.5 µg/mL (≈ 1.38 µM); in assay [2] (setting [11]) it was 2 µg/mL (≈ 5.53 µM); in assay [2] (Streptococcus mitis, n=29) it was 2 µg/mL (≈ 5.53 µM); in assay [2] (setting [13]) it was 2 µg/mL (≈ 5.53 µM).
Take `CN[C@H](CC(C)C)C(=O)N[C@H]1C(=O)N[C@@H](CC(N)=O)C(=O)N[C@H]2C(=O)N[C@H]3C(=O)N[C@H](C(=O)N[C@H](C(=O)O)c4cc(O)cc(O)c4-c4cc3ccc4O)[C@H](O)c3ccc(c(Cl)c3)Oc3cc2cc(c3O[C@@H]2O[C@H](CO)[C@@H](O)[C@H](O)[C@H]2O[C@H]2C[C@](C)(N)[C@H](O)[C@H](C)O2)Oc2ccc(cc2Cl)[C@H]1O` [Vancomycin, vancomycin]: the MIC50 in assay [2] (Staphylococcus aureus (MRSA PVL+), n=30, read-out: MIC50) amounted to 1 µg/mL (≈ 0.69 µM); in assay [2] (setting [14]) it was 1 µg/mL (≈ 0.69 µM); in assay [2] (Streptococcus anginosus, n=20, read-out: MIC50), 0.5 µg/mL (≈ 0.345 µM); in assay [2] (Streptococcus intermedius, n=30, read-out: MIC50), 0.5 µg/mL (≈ 0.345 µM); in assay [2] (Streptococcus mitis, n=29, read-out: MIC50), 0.5 µg/mL (≈ 0.345 µM); in assay [2] (setting [12]), 0.5 µg/mL (≈ 0.345 µM). In addition, the MIC90 worked out at 1 µg/mL (≈ 0.69 µM) in assay [2] (setting [9]); 1 µg/mL (≈ 0.69 µM) in assay [2] (setting [15]); 0.5 µg/mL (≈ 0.345 µM) in assay [2] (Streptococcus anginosus, n=20, read-out: MIC90); 0.5 µg/mL (≈ 0.345 µM) in assay [2] (Streptococcus intermedius, n=30, read-out: MIC90); 0.5 µg/mL (≈ 0.345 µM) in assay [2] (Streptococcus mitis, n=29, read-out: MIC90); 1 µg/mL (≈ 0.69 µM) in assay [2] (setting [13]).
As to colistin, the MIC50 result in assay [2] (Acinetobacter lwoffii, n=29) is “≦0.12 μg/ml”; in assay [2] (Enterobacter aerogenes, n=30) it was “≦0.12 μg/ml”; in assay [2] (Enterobacter cloacae, n=29) it was “≦0.12 μg/ml”; in assay [2] (Escherichia coli, n=40), 0.25 µg/mL; in assay [2] (Kiebsielia oxytoca, n=30), “≦0.12 μg/ml”; in assay [2] (Klebsiella pneumonia, n=27) it was 0.25 µg/mL. For the same compound, the MIC50 in assay [2] (Morganella morganii, n=30) is >2 µg/mL; in assay [2] (Proteus vulgaris, n=29), >2 µg/mL; in assay [2] (Salmonella species, n=30), “≦0.12 μg/ml”; in assay [2] (Serratia marcescens, n=30), >2 µg/mL; in assay [2] (Shigella species, n=30), “≦0.12 μg/ml”; in assay [2] (setting [10]) it was 0.25 µg/mL. The MIC90 was >2 µg/mL in assay [2] (Acinetobacter lwoffii, n=29); “≦0.12 μg/ml” in assay [2] (Enterobacter aerogenes, n=30); >2 µg/mL in assay [2] (Enterobacter cloacae, n=29); 0.5 µg/mL in assay [2] (Escherichia coli, n=40); 0.25 µg/mL in assay [2] (Kiebsielia oxytoca, n=30); 0.5 µg/mL in assay [2] (Klebsiella pneumonia, n=27). Besides, the MIC90 was >2 µg/mL in assay [2] (Morganella morganii, n=30); >2 µg/mL in assay [2] (Proteus vulgaris, n=29); 0.5 µg/mL in assay [2] (Salmonella species, n=30); >2 µg/mL in assay [2] (Serratia marcescens, n=30); “≦0.12 μg/ml” in assay [2] (Shigella species, n=30); >2 µg/mL in assay [2] (setting [10]).

The values above are taken from patent US20170107179A1 (Tetraphase Pharmaceuticals, Inc., priority 2010, published 2017).
